Where two headings read alike, the source gives them in different places.
Legend:
human IKCa1 channel = human IKCa1 channel (Homo sapiens, UniProt O15554); test: cell-based
Protocol: COS-7 cells, maintained in Dulbecco's modified Eagle's medium (DMEM) containing 10% heat-inactivated fetal calf serum, 4 mM L-glutamine and 1 mM Na^+ pyruvate, were transiently transfected with hlKCa1.
Electrophysiological experiments were carried out in the whole-cell configuration of the patch-clamp technique using an EPC-9 amplifier (HEKA Elektronik, Lambrecht Germany) interfaced to a computer running acquisition and analysis software (Pulse and Pulsfit; HEKA Elektronik). Pipettes were pulled from soft glass capillaries, coated with Sylgard (Dow-Corning, Midland, Mich.), and fire polished to resistances of 2.0–4.5 MΩ measured in the bath. COS-7 cells were trypsinized and plated on glass coverslips 3 h before measurement. […] To prevent activation of the native chloride channels in COS-7 cells an aspartate Ringer solution was used as an external solution (160 mM Na^+ aspartate, 4.5 mM KCl, 2 mM CaCl2, 1 mM MgCl2, 5 mM HEPES, adjusted to pH 7.4 with NaOH, with an osmolarity of 290–310 mosM). 200 ms voltage ramps from −120 mV to 40 mV every 10 s were used. The holding potential in all experiments was −80 mV. Series resistance compensation was not employed. The reduction of slope conductance at −80 mV was used to determine the Kd-value by fitting the values to the Hill equation with a Hill coefficient of unity.

[1] = read-out: Kd for block of IKCa1, hIKCa1 in COS-7 cells, reduction of slope conductance at −80 mV, 1 μM free Ca++ in pipette

human IKCa1 channel, sequence (O15554 whole entry): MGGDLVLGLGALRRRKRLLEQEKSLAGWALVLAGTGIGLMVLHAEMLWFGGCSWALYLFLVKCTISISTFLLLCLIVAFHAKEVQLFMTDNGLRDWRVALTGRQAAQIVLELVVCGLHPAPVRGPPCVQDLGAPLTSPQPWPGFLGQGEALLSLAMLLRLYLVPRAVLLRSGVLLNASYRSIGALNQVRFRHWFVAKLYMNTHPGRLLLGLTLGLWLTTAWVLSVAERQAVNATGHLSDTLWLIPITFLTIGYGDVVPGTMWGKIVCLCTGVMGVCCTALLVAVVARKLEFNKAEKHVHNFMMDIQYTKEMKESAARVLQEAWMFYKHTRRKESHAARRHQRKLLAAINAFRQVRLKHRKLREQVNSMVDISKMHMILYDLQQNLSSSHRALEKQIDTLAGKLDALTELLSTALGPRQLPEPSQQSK

Row | Structure (SMILES) | melting point | Kd (human IKCa1 channel) | Kd (human IKCa1 channel; [1])
1 | c1ccc(C(c2ccccc2)(c2ccccc2)n2cccn2)cc1 [Compound T11, 1-Trityl-1H-pyrazole] | 202 °C | 2.5 µM | 
2 | NC(=O)NC(c1ccccc1)(c1ccccc1)c1ccc(F)cc1 [Compound T31, N-[(4-Fluorophenyl)diphenylmethyl] urea] | 222 °C | 8 µM | 
3 | NC(=O)NC(c1ccccc1)(c1ccccc1)c1ccccc1Cl | 243 °C |  | 
4 | CC(=O)NC(c1ccccc1)(c1ccccc1)c1ccccc1F [Compound T76, N-(2-Fluorophenyl)diphenylmethyl acetamide] | 215 °C | 1.2 µM | 
5 | OC(c1ccccc1)(c1ccccc1)c1cccc(Cl)c1 [Compound T2, (3-Chlorophenyl)diphenyl methanol] | 53 °C | 0.53 µM | 
6 | OC(c1ccccc1)(c1ccccc1)c1cccs1 [Compound T9, (2-Thienyl)diphenyl methanol] | 129 °C | 1.5 µM | 
7 | Clc1ccccc1C(NCCNC(c1ccccc1)(c1ccccc1)c1ccccc1Cl)(c1ccccc1)c1ccccc1 [Compound T48, N,N-1,2-[(2-Chlorophenyl)diphenylmethyl]-amino ethane] | 228 °C | 30 µM | 
8 | NC(=O)NC(c1ccccc1)(c1ccccc1)c1ccc(Cl)cc1 [Compound T29, N-[(4-Chlorophenyl)diphenylmethyl] urea] | 228 °C | 15 µM | 
9 | OC(c1ccccc1)(c1cccs1)c1cccs1 [Compound T35, Di-(2-thienyl)phenyl methanol] | 86 °C | 9 µM | 
10 | Clc1ccccc1C(NCCCNC(c1ccccc1)(c1ccccc1)c1ccccc1Cl)(c1ccccc1)c1ccccc1 [Compound T49, N,N-1,3-[(2-Chlorophenyl)diphenylmethyl]-amino propane] | 198 °C | 32 µM | 
11 | N#CC(c1ccccc1)(c1ccccc1)c1ccc(F)cc1 [Compound T27, 2-(4-Fluorophenyl)2,2-diphenylacetonitrile] | 76 °C | 0.8 µM | 
12 | OC(c1ccccc1)(c1ccccc1)c1ccccc1F [Compound T36, (2-Fluorophenyl)diphenyl methanol] | 116 °C | 0.7 µM | 
13 | NC(=O)NC(c1ccccc1)(c1ccccc1)c1ccccc1F [Compound T45, N-[(2-Fluorophenyl)diphenylmethyl] urea] | 225 °C | 1 µM | 
14 | c1ccc(C(Nc2nccs2)(c2ccccc2)c2ccccc2)cc1 | 213 °C |  | 
15 | OC(c1ccccc1)(c1ccccc1)c1ccc(F)cc1 [Compound T12, (4-Fluorophenyl)diphenyl methanol] | 120.5 °C | 0.7 µM | 
16 | NC(=O)NC(c1ccccc1)(c1ccccc1)c1ccccc1 [Compound T24, N-trityl urea] | 238 °C | 8 µM | 
17 | c1ccc(C(c2ccccc2)(c2ccccc2)n2cccc2)cc1 [Compound T10, 1-Trityl-1H-pyrrole] | 243 °C | 28 µM | 
18 | Clc1ccccc1C(c1ccccc1)(c1ccccc1)n1cccc1 | 184 °C |  | 
19 | FC(F)(F)c1ccccc1C(Nc1nccs1)(c1ccccc1)c1ccccc1 [Compound T72, N-Diphenyl[2-(trifluoromethyl)phenyl]-methyl-N-(1,3-thiazol-2yl)amine] |  | 25 µM | 
20 | Clc1ccc(C(Nc2nccs2)(c2ccccc2)c2ccccc2)cc1 [Compound T64, N-[(4-Chlorophenyl)diphenylmethyl]-N-(1,3-thiazol-2yl)amine] |  | 20 µM | 
21 | NC(c1ccccc1)(c1ccccc1)c1ccccc1Cl [Compound T41, (2-chlorophenyl)diphenylmethyl amine] |  |  | 5 µM
22 | NC(c1ccccc1)(c1ccccc1)c1ccc(F)cc1 [Compound T42, (4-Fluorophenyl)diphenylmethyl amine] |  |  | 5 µM
23 | C[n+]1ccn(C(c2ccccc2)(c2ccccc2)c2ccccc2Cl)c1 [Compound T30] |  |  | 10 µM
